From ChEMBL document CHEMBL4311950, “Hip To Be Square: Oxetanes as Design Elements To Alter Metabolic Pathways” (J Med Chem, 2019)
≈ marks a conversion by molar mass, not a printed value.

Assays:
in vitro [1] = settings: human, hepatocytes
Description: Intrinsic clearance in human hepatocytes assessed per million cells at 50 uM in presence of NADPH by HPLC-MS analysis

physchem [2] = settings: buffer, pH 7.4
Description: Aqueous solubility of the compound in pH 7.4 HBSS buffer HPLC-MS analysis

physchem [3] = settings: pH 2.3
Description: Dissociation constant, pKa of compound at pH 2.3 to 10.8 by pressure assisted capillary electrophoresis-MS analysis

physchem [4] = settings: octanol/water, pH 7.4
Description: Octanol-water distribution coefficient, log D of the compound at pH 7.4 by RP-HPLC analysis

in vitro [5] = settings: human, liver microsomes
Description: Intrinsic clearance in human liver microsomes at 50 uM in presence of NADPH by HPLC-MS analysis

`COc1ccc(-c2nnc(C(=O)N3CC(Oc4ccc(CN5CC6(CCCO6)C5)cc4)C3)o2)cc1` showed a hepatocyte CLint at 50 µM (in vitro [1]) of 10.4 µL/min/1e6 cells and a solubility (physchem [2]) of 495 µM (≈ 236 µg/mL).

`COc1ccc(-c2nnc(C(=O)N3CC(Oc4ccc(CN5CCCC56COC6)cc4)C3)o2)cc1` gave a pKa (physchem [3]) of 6, a hepatocyte CLint at 50 µM (in vitro [1]) of 48.7 µL/min/1e6 cells and a solubility (physchem [2]) of 3 µM (≈ 1.43 µg/mL).

Compound `COc1cc(OC2CN(C(=O)c3nnc(-c4ccccc4)o3)C2)ccc1CN1CCCC12COC2` has a pKa (physchem [3]) of 8, a hepatocyte CLint at 50 µM (in vitro [1]) of 27.5 µL/min/1e6 cells and a solubility (physchem [2]) of 60 µM (≈ 28.6 µg/mL). For the same compound, the logD (physchem [4]) was 3.8.

`COc1cc(CN2CCCC23COC3)ccc1OC1CN(C(=O)c2nnc(-c3ccccc3)o2)C1` showed a pKa (physchem [3]) of 6, a hepatocyte CLint at 50 µM (in vitro [1]) of 25 µL/min/1e6 cells and a solubility (physchem [2]) of 221 µM (≈ 105 µg/mL). The logD (physchem [4]) was 3.5.

Work on `COc1cc(CN2CCCC23COC3)ccc1OC1CN(C(=O)c2nnc(-c3ccc(C(F)F)cc3)o2)C1` yielded a pKa (physchem [3]) of 6.1, a hepatocyte CLint at 50 µM (in vitro [1]) of 38.5 µL/min/1e6 cells and a solubility (physchem [2]) of 39 µM (≈ 20.5 µg/mL). For the same compound, the logD (physchem [4]) was 3.8.

`COc1cc(OC2CN(C(=O)c3nnc(-c4ccc(C(F)F)cc4)o3)C2)ccc1CN1CCCC12COC2` showed a pKa (physchem [3]) of 7, a hepatocyte CLint at 50 µM (in vitro [1]) of 42.7 µL/min/1e6 cells and a solubility (physchem [2]) of 43 µM (≈ 22.6 µg/mL). It also gave a logD (physchem [4]) of 4.2.

Work on `O=C(c1nnc(-c2ccccc2)o1)N1CC(Oc2ccc(CN3CC4(COC4)C3)cc2)C1` yielded a pKa (physchem [3]) of 8, a hepatocyte CLint at 50 µM (in vitro [1]) of 6.1 µL/min/1e6 cells and a solubility (physchem [2]) of 89 µM (≈ 38.5 µg/mL).

In the case of `COc1ccc(-c2nnc(C(=O)N3CC(Oc4ccc(CN5CC6(CCOC6)C5)cc4)C3)o2)cc1`, the hepatocyte CLint at 50 µM (in vitro [1]) is reported as 10.8 µL/min/1e6 cells and the solubility (physchem [2]) is reported as 82 µM (≈ 39.1 µg/mL).

Compound `Cc1cc(OC2CN(C(=O)c3nnc(-c4ccccc4)o3)C2)ccc1CN1CCCC2(COC2)C1` has a pKa (physchem [3]) of 7.6 and a logD (physchem [4]) of 3.6.

Compound `O=C(NC1C2CC3CC1CC(O)(C3)C2)c1cnc(OC2COC2)nc1C1CCCC1` (configuration not stated) has a pKa (physchem [3]) of 2.6, a microsomal CLint at 50 µM (in vitro [5]) of 2.8 µL/min/mg and a solubility (physchem [2]) of 476 µM (≈ 197 µg/mL). It also gave a logD (physchem [4]) of 1.9.

Work on `COc1ccc(CN2CCCC23COC3)cc1` yielded a microsomal CLint at 50 µM (in vitro [5]) of 8.1 µL/min/mg, a solubility (physchem [2]) of 610 µM (≈ 142 µg/mL) and a logD (physchem [4]) of 1.8.

Compound `COc1ccc(CN2CCCC3(COC3)C2)cc1` has a pKa (physchem [3]) of 8.08, a microsomal CLint at 50 µM (in vitro [5]) of 28.3 µL/min/mg and a solubility (physchem [2]) of 744 µM (≈ 184 µg/mL). For the same compound, the logD (physchem [4]) was 1.5.

In the case of `COc1ccc(-c2nnc(C(=O)N3CC(Oc4ccc(CN5CC6CC(C5)O6)cc4)C3)o2)cc1`, the pKa (physchem [3]) is reported as 7.3, the hepatocyte CLint at 50 µM (in vitro [1]) is reported as 38 µL/min/1e6 cells and the solubility (physchem [2]) is reported as 3 µM (≈ 1.39 µg/mL). It also gave a logD (physchem [4]) of 2.9.

`O=C(NC1C2CC3CC1CC(O)(C3)C2)c1cnc(OC2COC2)nc1C1CCC1` (configuration not stated) showed a microsomal CLint at 50 µM (in vitro [5]) of 6.1 µL/min/mg, a solubility (physchem [2]) of 818 µM (≈ 327 µg/mL) and a logD (physchem [4]) of 1.6.

Work on `O=C(c1nnc(-c2ccccc2)o1)N1CC(Oc2ccc(CN3CC4(COC4)C3)c(Cl)c2)C1` yielded a pKa (physchem [3]) of 7.7, a hepatocyte CLint at 50 µM (in vitro [1]) of 32.7 µL/min/1e6 cells and a solubility (physchem [2]) of 90 µM (≈ 42 µg/mL). The logD (physchem [4]) was 3.

For `O=C(c1nnc(-c2ccc(OC(F)F)cc2)o1)N1CC(Oc2ccc(CN3CC4(COC4)C3)cc2)C1`, the hepatocyte CLint at 50 µM (in vitro [1]) was 27.2 µL/min/1e6 cells, the solubility (physchem [2]) was 51 µM (≈ 25.4 µg/mL) and the logD (physchem [4]) was 2.5.

`O=C(NC1C2CC3CC1CC(O)(C3)C2)c1cnc(NC2COC2)nc1C1CC1` (configuration not stated) gave a pKa (physchem [3]) of 2.8, a microsomal CLint at 50 µM (in vitro [5]) of less than 2 µL/min/mg and a solubility (physchem [2]) of 580 µM (≈ 223 µg/mL). It also gave a logD (physchem [4]) of 1.1.

`COc1ccc(CN2CCC3(CC2)COC3)cc1` showed a pKa (physchem [3]) of 8.56, a microsomal CLint at 50 µM (in vitro [5]) of 20.6 µL/min/mg and a solubility (physchem [2]) of 750 µM (≈ 186 µg/mL). The logD (physchem [4]) was 0.8.

For `COc1cc(CN2CC3(COC3)C2)ccc1OC1CN(C(=O)c2nnc(-c3ccc(C(F)F)cc3)o2)C1`, the pKa (physchem [3]) was 8.9, the hepatocyte CLint at 50 µM (in vitro [1]) was 19.5 µL/min/1e6 cells and the solubility (physchem [2]) was 82 µM (≈ 42 µg/mL). It also gave a logD (physchem [4]) of 2.2.

For `COc1ccc(-c2nnc(C(=O)N3CC(Oc4ccc(CN5CC6(COC6)C5)c(C)c4)C3)o2)cc1`, the pKa (physchem [3]) was 8.2, the hepatocyte CLint at 50 µM (in vitro [1]) was 17 µL/min/1e6 cells and the solubility (physchem [2]) was 73 µM (≈ 34.8 µg/mL). It also gave a logD (physchem [4]) of 2.6.

In the case of `COc1ccc(-c2nnc(C(=O)N3CC(Oc4ccc(CN(C)CC5(C)COC5)c(C)c4)C3)o2)cc1`, the pKa (physchem [3]) is reported as 8 and the logD (physchem [4]) is reported as 3.

For `COc1ccc(-c2nnc(C(=O)N3CC(Oc4ccc(CNCC5(C)COC5)cc4)C3)o2)cc1`, the pKa (physchem [3]) was 8.2, the microsomal CLint at 50 µM (in vitro [5]) was 103 µL/min/mg and the solubility (physchem [2]) was 61 µM (≈ 28.3 µg/mL). The logD (physchem [4]) was 2.

In the case of `O=C(c1nnc(-c2ccccc2)o1)N1CC(Oc2ccc(CN3CC4(COC4)C3)cc2Cl)C1`, the pKa (physchem [3]) is reported as 7.5, the hepatocyte CLint at 50 µM (in vitro [1]) is reported as 12.4 µL/min/1e6 cells and the solubility (physchem [2]) is reported as 76 µM (≈ 35.5 µg/mL). The logD (physchem [4]) was 2.7.

With `COc1ccc(-c2nnc(C(=O)N3CC(Oc4ccc(CN5CC6(COC6)C5)cc4C)C3)o2)cc1` the pKa (physchem [3]) was 8.4, the hepatocyte CLint at 50 µM (in vitro [1]) was 18.6 µL/min/1e6 cells and the solubility (physchem [2]) was 74 µM (≈ 35.3 µg/mL). It also gave a logD (physchem [4]) of 2.5.

With `O=C(c1nnc(-c2ccc(C(F)F)cc2)o1)N1CC(Oc2ccc(CN3CC4(COC4)C3)cc2)C1` the pKa (physchem [3]) was 8.5, the hepatocyte CLint at 50 µM (in vitro [1]) was 5.3 µL/min/1e6 cells and the solubility (physchem [2]) was 86 µM (≈ 41.5 µg/mL). The logD (physchem [4]) was 2.4.

For `O=C(NC1C2CC3CC1CC(O)(C3)C2)c1cnc(NC2COC2)nc1C1CCCC1` (configuration not stated), the pKa (physchem [3]) was 2.6, the microsomal CLint at 50 µM (in vitro [5]) was less than 2 µL/min/mg and the solubility (physchem [2]) was greater than 1820 µM. It also gave a logD (physchem [4]) of 2.1.

Work on `O=C(c1nnc(-c2ccc(F)cc2)o1)N1CC(Oc2ccc(CN3CC4(COC4)C3)cc2)C1` yielded a pKa (physchem [3]) of 8.2, a hepatocyte CLint at 50 µM (in vitro [1]) of 1.9 µL/min/1e6 cells and a solubility (physchem [2]) of 735 µM (≈ 331 µg/mL). For the same compound, the logD (physchem [4]) was 2.

With `O=C(NC1C2CC3CC1CC(O)(C3)C2)c1cnc(OC2COC2)nc1C1CC1` (configuration not stated) the microsomal CLint at 50 µM (in vitro [5]) was less than 2 µL/min/mg, the solubility (physchem [2]) was 867 µM (≈ 334 µg/mL) and the logD (physchem [4]) was 2.

Work on `COc1ccc(CN2CC3(COC3)C2)cc1` yielded a pKa (physchem [3]) of 8.25, a microsomal CLint at 50 µM (in vitro [5]) of less than 3 µL/min/mg and a solubility (physchem [2]) of 364 µM (≈ 79.8 µg/mL). For the same compound, the logD (physchem [4]) was 0.4.

With `O=C(NC1C2CC3CC1CC(O)(C3)C2)c1cnc(NC2COC2)nc1C1CCC1` (configuration not stated) the pKa (physchem [3]) was 2.4, the microsomal CLint at 50 µM (in vitro [5]) was less than 3.5 µL/min/mg and the solubility (physchem [2]) was greater than 2520 µM. For the same compound, the logD (physchem [4]) was 1.6.

`COc1ccc(-c2nnc(C(=O)N3CC(Oc4ccc(COCC5(C)COC5)cc4)C3)o2)cc1` gave a microsomal CLint at 50 µM (in vitro [5]) greater than 300 µL/min/mg and a solubility (physchem [2]) of 3 µM (≈ 1.4 µg/mL).

In the case of `COc1cc(OC2CN(C(=O)c3nnc(-c4ccc(C(F)F)cc4)o3)C2)ccc1CN1CC2(COC2)C1`, the pKa (physchem [3]) is reported as 8.2, the hepatocyte CLint at 50 µM (in vitro [1]) is reported as 19.4 µL/min/1e6 cells and the solubility (physchem [2]) is reported as 87 µM (≈ 44.6 µg/mL). It also gave a logD (physchem [4]) of 2.1.
